Data reported in patent US12581252B2, “Substituted pyrrolo[3,4-b]pyridines as PI3K-α inhibitors” (Relay Therapeutics, Inc., priority 2020, dated 2026).

Assays:
cells = conditions: Homo sapiens, MCF-10A, read-out: MCF10A IC50
H1047R PIK3CA enzyme = H1047R PIK3CA enzyme (Homo sapiens, UniProt P42336, H1047R); assay: ADP-Glo Biochemical PIK3CA Kinase Assay
Sequence of H1047R PIK3CA enzyme (P42336 whole entry H1047R): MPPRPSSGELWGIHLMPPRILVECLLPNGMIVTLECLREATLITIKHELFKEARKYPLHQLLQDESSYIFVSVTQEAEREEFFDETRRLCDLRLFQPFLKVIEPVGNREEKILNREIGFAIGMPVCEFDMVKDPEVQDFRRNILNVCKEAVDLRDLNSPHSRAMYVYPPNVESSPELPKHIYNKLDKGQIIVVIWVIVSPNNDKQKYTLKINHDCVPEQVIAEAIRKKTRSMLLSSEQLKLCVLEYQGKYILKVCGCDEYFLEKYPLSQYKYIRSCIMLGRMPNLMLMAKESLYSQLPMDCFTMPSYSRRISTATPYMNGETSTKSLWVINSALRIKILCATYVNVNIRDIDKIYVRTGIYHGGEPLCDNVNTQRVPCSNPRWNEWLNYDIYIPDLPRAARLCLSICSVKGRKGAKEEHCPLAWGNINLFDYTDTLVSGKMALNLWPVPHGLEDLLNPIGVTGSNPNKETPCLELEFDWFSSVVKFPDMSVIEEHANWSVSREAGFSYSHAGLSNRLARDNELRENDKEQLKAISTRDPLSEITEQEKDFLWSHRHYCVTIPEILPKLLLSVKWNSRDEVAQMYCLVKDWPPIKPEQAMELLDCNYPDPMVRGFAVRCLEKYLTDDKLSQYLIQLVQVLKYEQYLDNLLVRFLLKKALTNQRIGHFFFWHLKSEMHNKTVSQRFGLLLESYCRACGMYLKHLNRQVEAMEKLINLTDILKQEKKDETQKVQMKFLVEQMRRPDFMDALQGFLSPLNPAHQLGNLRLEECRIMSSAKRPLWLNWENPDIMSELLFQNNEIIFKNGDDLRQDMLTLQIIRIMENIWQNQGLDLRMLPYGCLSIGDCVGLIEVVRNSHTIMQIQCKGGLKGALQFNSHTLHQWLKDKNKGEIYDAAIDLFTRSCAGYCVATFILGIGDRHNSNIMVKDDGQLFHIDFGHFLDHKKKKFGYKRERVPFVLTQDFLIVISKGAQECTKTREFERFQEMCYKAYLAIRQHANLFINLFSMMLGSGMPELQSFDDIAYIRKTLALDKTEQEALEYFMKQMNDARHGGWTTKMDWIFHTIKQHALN
Sequence of H1047R PIK3CA enzyme (P27986 whole entry partner): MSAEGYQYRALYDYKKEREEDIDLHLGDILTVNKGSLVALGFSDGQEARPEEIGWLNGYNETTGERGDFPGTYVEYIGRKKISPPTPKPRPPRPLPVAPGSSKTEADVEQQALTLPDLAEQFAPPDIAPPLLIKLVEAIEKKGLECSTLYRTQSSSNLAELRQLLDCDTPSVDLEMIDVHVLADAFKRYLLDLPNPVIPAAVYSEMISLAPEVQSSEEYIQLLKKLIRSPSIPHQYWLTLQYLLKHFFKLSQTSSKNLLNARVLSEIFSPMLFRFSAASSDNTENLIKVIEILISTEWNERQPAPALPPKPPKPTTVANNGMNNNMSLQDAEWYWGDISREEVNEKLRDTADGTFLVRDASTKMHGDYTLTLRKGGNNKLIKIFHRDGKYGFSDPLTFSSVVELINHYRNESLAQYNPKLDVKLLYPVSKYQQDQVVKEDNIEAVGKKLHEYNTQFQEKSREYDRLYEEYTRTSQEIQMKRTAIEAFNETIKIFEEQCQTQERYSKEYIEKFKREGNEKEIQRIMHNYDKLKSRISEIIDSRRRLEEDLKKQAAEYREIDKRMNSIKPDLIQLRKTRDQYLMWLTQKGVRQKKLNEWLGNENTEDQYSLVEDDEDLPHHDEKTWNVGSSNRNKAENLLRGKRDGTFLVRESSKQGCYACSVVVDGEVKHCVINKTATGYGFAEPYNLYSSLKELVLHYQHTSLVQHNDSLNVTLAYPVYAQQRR

SMILES	IC50 (cells) [nM]	IC50 (H1047R PIK3CA enzyme) [nM]
CC(C)(O)Cn1cc(-c2cc(NC(=O)c3cc(F)cc(C(F)(F)F)c3)c3c(c2)C(=O)NC3c2cc(F)ccc2Cl)cn1 (stereo not drawn) [Compound I-968]	< 1000	≤ 100
O=C(Nc1cc(-c2cnc3ncnn3c2)cc2c1C(c1cc(F)ccc1Cl)NC2=O)c1cc(F)cc(C(F)(F)F)c1 (stereo not drawn) [Compound I-969]	< 1000	≤ 100
O=C(Nc1cc(-c2cc3ncccc3[nH]2)cc2c1C(c1cc(F)ccc1Cl)NC2=O)c1cc(F)cc(C(F)(F)F)c1 (stereo not drawn) [Compound I-970]	< 1000	≤ 100
O=C(Nc1cc(-c2cc3ccccc3[nH]2)cc2c1C(c1cc(F)ccc1Cl)NC2=O)c1cc(F)cc(C(F)(F)F)c1 (stereo not drawn) [Compound I-971]	< 1000	≤ 100
O=C(Nc1cc(-c2cc3cccnc3[nH]2)cc2c1C(c1cc(F)ccc1Cl)NC2=O)c1cc(F)cc(C(F)(F)F)c1 (stereo not drawn) [Compound I-972]	< 1000	≤ 100
Cn1ncnc1Nc1cc(NC(=O)c2cc(F)cc(C(F)(F)F)c2)c2c(c1)C(=O)NC2c1cc(F)ccc1Cl (stereo not drawn) [Compound I-974]	< 1000	≤ 100
Cn1cnc(Nc2cc(NC(=O)c3cc(F)cc(C(F)(F)F)c3)c3c(c2)C(=O)NC3c2cc(F)ccc2Cl)n1 (stereo not drawn) [Compound I-976]	< 1000	≤ 100
O=C1NC(c2cc(F)ccc2Cl)c2c(Nc3nccc4c(C(F)(F)F)cc(F)cc34)cc(Br)cc21 (stereo not drawn) [Compound I-978]	< 1000	≤ 100
N#Cc1ncc(-c2cc(NC(=O)c3cc(F)cc(C(F)(F)F)c3)c3c(c2)C(=O)N[C@@H]3c2cc(F)ccc2Cl)cn1 [Compound I-980]	< 1000	≤ 100
O=C1NCc2cc(-c3cc(NC(=O)c4cc(F)cc(C(F)(F)F)c4)c4c(c3)C(=O)NC4c3cc(F)ccc3Cl)ccc2O1 (stereo not drawn) [Compound I-981]	< 1000	≤ 100
O=C1Cc2ccc(-c3cc(NC(=O)c4cc(F)cc(C(F)(F)F)c4)c4c(c3)C(=O)NC4c3cc(F)ccc3Cl)cc2N1 (stereo not drawn) [Compound I-982]	< 1000	≤ 100
O=C(Nc1cc(-c2cccn3nccc23)cc2c1C(c1cc(F)ccc1Cl)NC2=O)c1cc(F)cc(C(F)(F)F)c1 (stereo not drawn) [Compound I-983]	< 1000	≤ 100
Cc1nc2ccc(-c3cc(NC(=O)c4cc(F)cc(C(F)(F)F)c4)c4c(c3)C(=O)NC4c3cc(F)ccc3Cl)cc2o1 (stereo not drawn) [Compound I-984]	< 1000	≤ 100
Cc1ncncc1-c1cc(NC(=O)c2cc(F)cc(C(F)(F)F)c2)c2c(c1)C(=O)NC2c1cc(F)ccc1Cl (stereo not drawn) [Compound I-985]	< 1000	≤ 100
O=C(Nc1cc(Nc2nc3ccccc3[nH]2)cc2c1C(c1cc(F)ccc1Cl)NC2=O)c1cc(F)cc(C(F)(F)F)c1 (stereo not drawn) [Compound I-993]	1000 to 5000	≤ 100
O=C(Nc1cc(Nc2cn[nH]c2)cc2c1C(c1cc(F)ccc1Cl)NC2=O)c1cc(F)cc(C(F)(F)F)c1 (stereo not drawn) [Compound I-994]	< 1000	≤ 100
O=C(Nc1cc(Nc2ncc[nH]2)cc2c1C(c1cc(F)ccc1Cl)NC2=O)c1cc(F)cc(C(F)(F)F)c1 (stereo not drawn) [Compound I-999]	1000 to 5000	≤ 100
O=C(Nc1cc(-c2ccc3nccnc3c2)cc2c1C(c1cc(F)ccc1Cl)NC2=O)c1cc(F)cc(C(F)(F)F)c1 (stereo not drawn) [Compound I-1012]	< 1000	≤ 100
O=C(Nc1cc(-c2cccc3nccn23)cc2c1C(c1cc(F)ccc1Cl)NC2=O)c1cc(F)cc(C(F)(F)F)c1 (stereo not drawn) [Compound I-1013]	< 1000	≤ 100
O=C(Nc1cc(Br)cc2c1C(c1cc(F)ccc1C(F)(F)F)NC2=O)c1cc(F)cc(C(F)(F)F)c1 (stereo not drawn) [Compound I-1014]	< 1000	≤ 100
O=C(Nc1cc(-n2ccnc2)cc2c1C(c1cc(F)ccc1Cl)NC2=O)c1cc(F)cc(C(F)(F)F)c1 (stereo not drawn) [Compound I-1015]	< 1000	≤ 100
Cn1cc(-c2cc(NC(=O)c3cc(F)cc(C(F)(F)F)c3)c3c(c2)C(=O)NC3c2cc(F)ccc2Cl)ncc1=O (stereo not drawn) [Compound I-1016]	< 1000	≤ 100
Cc1[nH]ncc1Nc1cc(NC(=O)c2cc(F)cc(C(F)(F)F)c2)c2c(c1)C(=O)NC2c1cc(F)ccc1Cl (stereo not drawn) [Compound I-1017]	< 1000	≤ 100
CS(=N)(=O)Cc1cc(NC(=O)c2cc(F)cc(C(F)(F)F)c2)c2c(c1)C(=O)NC2c1cc(F)ccc1Cl (stereo not drawn) [Compound I-1018]	< 1000	≤ 100
O=C(Nc1cc(C2CC(O)C2)cc2c1C(c1cc(F)ccc1Cl)NC2=O)c1cc(F)cc(C(F)(F)F)c1 (stereo not drawn) [Compound I-1019]	< 1000	≤ 100
COCCc1cc(NC(=O)c2cc(F)cc(C(F)(F)F)c2)c2c(c1)C(=O)NC2c1cc(F)ccc1Cl (stereo not drawn) [Compound I-1020]	< 1000	≤ 100
O=C(Nc1cc(-c2cnc3ncnn3c2)cc2c1[C@H](c1cc(F)ccc1Cl)NC2=O)c1cc(F)cc(C(F)(F)F)c1 [Compound I-1024]	< 1000	≤ 100

SMILES	IC50 (cells) [nM]	IC50 (H1047R PIK3CA enzyme) [nM]
O=C(Nc1cc(-c2nc3cnccc3[nH]2)cc2c1C(c1cc(F)ccc1Cl)NC2=O)c1cc(F)cc(C(F)(F)F)c1 (stereo not drawn) [Compound I-1025]	1000 to 5000	≤ 100
O=C(Nc1cc(-c2nc3ncccc3[nH]2)cc2c1C(c1cc(F)ccc1Cl)NC2=O)c1cc(F)cc(C(F)(F)F)c1 (stereo not drawn) [Compound I-1026]	< 1000	≤ 100
O=C1CCc2c(cccc2-c2cc(NC(=O)c3cc(F)cc(C(F)(F)F)c3)c3c(c2)C(=O)NC3c2cc(F)ccc2Cl)N1 (stereo not drawn) [Compound I-1028]	< 1000	≤ 100
Cn1cc2cc(-c3cc(NC(=O)c4cc(F)cc(C(F)(F)F)c4)c4c(c3)C(=O)NC4c3cc(F)ccc3Cl)ccc2n1 (stereo not drawn) [Compound I-1029]	< 1000	≤ 100
Cn1nncc1-c1cc(NC(=O)c2cc(F)cc(C(F)(F)F)c2)c2c(c1)C(=O)NC2c1cc(F)ccc1Cl (stereo not drawn) [Compound I-1030]	< 1000	≤ 100
O=C(Nc1cc(-c2cccc3nonc23)cc2c1C(c1cc(F)ccc1Cl)NC2=O)c1cc(F)cc(C(F)(F)F)c1 (stereo not drawn) [Compound I-1031]	< 1000	≤ 100
Cc1cc2ncc(-c3cc(NC(=O)c4cc(F)cc(C(F)(F)F)c4)c4c(c3)C(=O)NC4c3cc(F)ccc3Cl)cn2n1 (stereo not drawn) [Compound I-1032]	< 1000	≤ 100
O=C(Nc1cc(-c2ccc3[nH]ncc3c2)cc2c1C(c1cc(F)ccc1Cl)NC2=O)c1cc(F)cc(C(F)(F)F)c1 (stereo not drawn) [Compound I-1033]	< 1000	≤ 100
O=C(Nc1cc(-c2ccnn2CC2CC2)cc2c1C(c1cc(F)ccc1Cl)NC2=O)c1cc(F)cc(C(F)(F)F)c1 (stereo not drawn) [Compound I-1038]	< 1000	≤ 100
Cc1noc2ncc(-c3cc(NC(=O)c4cc(F)cc(C(F)(F)F)c4)c4c(c3)C(=O)NC4c3cc(F)ccc3Cl)cc12 (stereo not drawn) [Compound I-1039]	< 1000	≤ 100
O=C(Nc1cc(N2CCn3ncnc3C2)cc2c1C(c1cc(F)ccc1Cl)NC2=O)c1cc(F)cc(C(F)(F)F)c1 (stereo not drawn) [Compound I-1040]	1000 to 5000	≤ 100
O=C(Nc1cc(-c2cccc3c2CCNC3=O)cc2c1C(c1cc(F)ccc1Cl)NC2=O)c1cc(F)cc(C(F)(F)F)c1 (stereo not drawn) [Compound I-1042]	< 1000	≤ 100
O=C1COCc2cc(-c3cc(NC(=O)c4cc(F)cc(C(F)(F)F)c4)c4c(c3)C(=O)NC4c3cc(F)ccc3Cl)ccc2N1 (stereo not drawn) [Compound I-1043]	< 1000	≤ 100
O=C(Nc1cc(-c2cnn3cccnc23)cc2c1C(c1cc(F)ccc1Cl)NC2=O)c1cc(F)cc(C(F)(F)F)c1 (stereo not drawn) [Compound I-1046]	< 1000	≤ 100
O=C(Nc1cc(-c2cnc3ccnn3c2)cc2c1C(c1cc(F)ccc1Cl)NC2=O)c1cc(F)cc(C(F)(F)F)c1 (stereo not drawn) [Compound I-1047]	< 1000	≤ 100
O=C(Nc1cc(-c2ccc3c(c2)C(=O)NCCO3)cc2c1C(c1cc(F)ccc1Cl)NC2=O)c1cc(F)cc(C(F)(F)F)c1 (stereo not drawn) [Compound I-1048]	< 1000	≤ 100
O=C(Nc1cc(-c2ccnc3[nH]ccc23)cc2c1C(c1cc(F)ccc1Cl)NC2=O)c1cc(F)cc(C(F)(F)F)c1 (stereo not drawn) [Compound I-1049]	< 1000	≤ 100
O=C(Nc1cc(-c2ccc3ncnn3c2)cc2c1[C@@H](c1cc(Cl)ccc1Cl)NC2=O)c1cc(F)cc(C(F)(F)F)c1 [Compound I-1054]	< 1000	≤ 100
O=C(Nc1cc(-c2ccc3ncnn3c2)cc2c1C(c1cc(F)ccc1C(F)F)NC2=O)c1cc(F)cc(C(F)(F)F)c1 (stereo not drawn) [Compound I-1057]	< 1000	≤ 100
O=C(Nc1cc(-c2ccc3ncnn3c2)cc2c1[C@@H](c1cc(F)c(F)cc1Cl)NC2=O)c1cc(F)cc(C(F)(F)F)c1 [Compound I-1061]	< 1000	≤ 100
O=C(Nc1cc(OCCO)cc2c1C(c1cc(F)ccc1Cl)NC2=O)c1cc(F)cc(C(F)(F)F)c1 (stereo not drawn) [Compound I-1064]	< 1000	≤ 100
O=C(Nc1cc(-c2cncs2)cc2c1C(c1cc(F)ccc1Cl)NC2=O)c1cc(F)cc(C(F)(F)F)c1 (stereo not drawn) [Compound I-1065]	< 1000	≤ 100
COc1nc(-c2cc(NC(=O)c3cc(F)cc(C(F)(F)F)c3)c3c(c2)C(=O)NC3c2cc(F)ccc2Cl)cs1 (stereo not drawn) [Compound I-1066]	1000 to 5000	≤ 100
NC(=O)c1nc(-c2cc(NC(=O)c3cc(F)cc(C(F)(F)F)c3)c3c(c2)C(=O)NC3c2cc(F)ccc2Cl)cs1 (stereo not drawn) [Compound I-1067]	< 1000	≤ 100
O=C(Nc1cc(-c2cnsc2)cc2c1C(c1cc(F)ccc1Cl)NC2=O)c1cc(F)cc(C(F)(F)F)c1 (stereo not drawn) [Compound I-1068]	< 1000	≤ 100
O=C(Nc1cc(-n2cccn2)cc2c1[C@H](c1cc(F)ccc1Cl)NC2=O)c1cc(F)cc(C(F)(F)F)c1 [Compound I-1069]	< 1000	≤ 100
Cn1ccc(Nc2cc(NC(=O)c3cc(F)cc(C(F)(F)F)c3)c3c(c2)C(=O)N[C@H]3c2cc(F)ccc2Cl)n1 [Compound I-1071]	< 1000	≤ 100
